Tests used:
[1] = Solubility in aqueous solutions; type: physicochemical
isolated microglia = assay: Markers of reactivity and immune signaling in isolated microglia (qRT-PCR); type: cell-based, mice; details: S3QEL2 20 μM, 24 h
Experimental: Microglia isolated from P2-P3 mice were treated with lipopolysaccharide (LPS, 100 ng/ml) or oligomeric Aβ (3 μM), and S3QEL2 (20 μM) or vehicle for 24 h and analyzed by qRT-PCR. n=3 wells per condition.

lipocalin-2 = assay: Lipocalin-2 protein released by primary astrocytes (ELISA); type: cell-based, mice; details: A1 cocktail, 60 μM, approximately 24 h
Experimental: Astrocytes isolated from P2-P3 mice were treated with A1 cocktail consisting of 30 ng/mL TNF-α, 3 ng/mL IL-1α, and 400 ng/mL Clq, and S3QEL2 (S3, 60 μM) or vehicle (Con) for approximately 24 h. Levels of astrocytic lipocalin-2 protein released into the culture media were analyzed by ELISA. n=4 wells per condition. **p<0.01, ***p<0.001, one-way ANOVA with Dunnett's multiple comparisons test.

[2] = test system: GFAP; phospho-serine 202/205 tau; assay: Immunofluorescent staining of GFAP and phospho-serine 202/205 tau (AT8) in hTauP301S mice; type: in vivo; details: 6 weeks oral dosing
Description: Immunofluorescent staining and quantification of astrocytic marker GFAP (red, FIG. 4A) and phospho-serine 202/205 tau (AT8, green, FIG. 4B) in male nontransgenic (NTG) and hTauP301S mice after 6 weeks of oral dosing with S3QEL2 or vehicle. (FIGS. 4C-4E) n=12-16 mice per group; *p<0.05, **p<0.01, ***p<0.001, ANOVA with Bonferroni's test.
(§1) As assessed by immunolabeling, hTauP301S mice treated with S3QEL2 also had reduced levels of glial fibrillary acidic protein (GFAP)-positive astrogliosis and phosphorylated tau (FIG. 7). Western blotting confirmed reduced levels of phosphorylated but not total tau in these mice (FIG. 5).

tau = assay: Western blotting of phospho-tau and total tau in hippocampal tissue of hTauP301S mice; type: in vivo; details: 6 weeks oral dosing
Description: Levels of phospho-tau (FIG. 5A) and total tau (FIG. 5B) as measured by Western blotting in hippocampal tissue from male nontransgenic (NTG) and hTauP301S mice after 6 weeks of oral dosing with S3QEL2 or vehicle. n=3-6 mice per group. *p<0.05, **p<0.01, ***p<0.001, ANOVA with Dunnett's test.
as §1

hTauP301S mice = assay: Survival of hTauP301S mice on S3QEL2-formulated chow; type: in vivo; details: long-term chow administration from 4-5 months of age
Description: Nontransgenic (NTG) and transgenic hTauP301S male mice received oral dosing with S3QEL2-formulated chow or control chow (Control) for indicated durations starting at 4-5 months of age. n=14-15 mice per genotype and treatment, pairwise Mantel-Cox test.
Survival rates in wild-type and transgenic hTauP301S mice during chronic treatment with control or S3QEL2-containing chow was also monitored.

[3] = test system: genes linked to neuroinflammation and glial reactivity; assay: Microfluidic RT-qPCR panel of neuroinflammation-related genes in hippocampi of hTauP301S mice; type: in vivo; details: 10-month-old hTauP301S mice, six weeks oral dosing, vs vehicle
Experimental: Subset of neuroinflammatory markers measured by RT-qPCR in hippocampi of 10-month-old male nontransgenic (NTG) or hTauP301S mice after 6 weeks of oral dosing with 5 mg/kg/day S3QEL2, 10 mg/kg/day S1QEL1.1, or vehicle. […] Average fold-change vs NTG. n=3-5 mice per group.
Next, studies were conducted to test if S3QEL2 or SIQEL1.1 altered the expression of genes involved in neuroinflammation and glial reactivity in hTauP301S mice.

[4] = test system: primary neurons with primary mouse microglia; assay: Tau-associated neuronal damage in primary neurons cultured with microglia; type: cell-based; details: 10 μM; AAV human P301S tau
Experimental: Primary neurons were immunostained for MAP2 or NeuN following mock treatment or transduction with AAV encoding human P301S mutant tau under the synapsin-1 promoter. Neurons were cultured without (FIGS. 9A-9B) or with (FIGS. 9C-9D) primary mouse microglia. S3QEL2 (S3, 10 μM). n=4 per condition.
To begin dissecting the mechanisms by which S3QEL2 affects neural cell function and disease-linked processes, studies in primary cultures were conducted. Isolated mouse-derived neurons were transduced with adeno-associated viral vectors (AAVs) encoding wild-type or the P301S mutant form of the human tau protein (FIG. 8A). […] However, S3QEL reduced neuronal damage in the presence of astrocytes (approx. 30% astrocytes, FIG. 10A). Tau can also promote aberrant neuronal activity and hypersynchrony. S3QEL reduced aberrant neuronal firing in tau-transduced neurons co-cultured with astrocytes (FIGS. 10B-10C).

ASC/Pycard; CD11b = assay: Immunolabeling of ASC/Pycard and CD11b in hippocampal tissue of hTauP301S mice; type: in vivo; details: 6 weeks oral dosing
Description: Levels of immunolabeling for the inflammasome protein ASC/Pycard (FIG. 6A) and the microglial marker CD11b (FIG. 6B) in hippocampal tissue from nontransgenic (NTG) and hTauP301S mice after 6 weeks of oral dosing with S3QEL2 or vehicle. n=3-6 mice per group. *p<0.05, **p<0.01, ***p<0.001, ANOVA with Dunnett's test.
as §1

[5] = test system: U-87 MG glioblastoma cells; assay: Glioblastoma cell proliferation, DAPI staining of cell nuclei, U-87 MG; type: cell-based, human; details: 72 h
Experimental: (§2) Cell density was measured using DAPI staining of cell nuclei and quantification of fluorescence intensities. n=3 wells per condition. […] STAT3 levels were measured by Western blotting. STAT3 levels were normalized to γ-tubulin levels within each cell lysate and expressed as fold change relative to U-87MG cells. n=4 wells per condition. **p<0.01, ***p<0.001 vs. 0 μM or U-87MG, one-way ANOVA with Dunnett's multiple comparisons test.
(§3) Briefly, two complementary methods were used to assess cell proliferation, including the CellTiter-Glo assay and DAPI staining of cell nuclei. The effects of S3QEL2 treatment on A-172, T98G, and U-87 MG cells were measured at different drug concentrations (0, 6, 20, 30, 40, or 50 μM) and time-points after treatment (72 or 96 hours). S3QEL2 inhibits proliferation of A-172 and T98G glioblastoma cells in a highly dose-dependent manner and these effects are similar at different time-points (FIG. 15A-B).

A-172 glioblastoma cells = assay: Glioblastoma cell proliferation, DAPI staining of cell nuclei, A-172; type: cell-based, human; details: 72 h
Experimental: as §2, §3

CCCN(CCC)c1ncnc2c1cnn2-c1ccc(C)c(C)c1 [S3QEL2]
Solubility in aqueous solutions [1]: limited solubility in aqueous solutions
Markers of reactivity and immune signaling in microglia (isolated microglia; LPS 100 ng/ml): did not affect markers of reactivity and immune signaling
Markers of reactivity and immune signaling in microglia (isolated microglia; oligomeric Aβ 3 μM): did not affect markers of reactivity and immune signaling
Release of lipocalin-2 protein into culture media (lipocalin-2): inhibited the release of lipocalin-2
GFAP-positive astrogliosis (immunolabeling) [2]: reduced
Phosphorylated tau (AT8 immunolabeling) [2]: reduced
Phospho-tau levels (Western blotting) (tau): reduced
Early mortality associated with tauopathy (hTauP301S mice): significantly reduced early mortality
Expression of genes linked to neuroinflammation and glial reactivity [3]: reduced expression of diverse genes linked to neuroinflammation and glial reactivity
Tau-associated neuronal damage, neurons cultured with microglia [4]: did not affect tau-associated neuronal damage
ASC/Pycard protein immunolabeling (ASC/Pycard; CD11b): reduced
CD11b protein immunolabeling (ASC/Pycard; CD11b): reduced
Cell proliferation (cell density, DAPI staining) [5]: but not U-87 MG cells
Cell proliferation (cell density, DAPI staining) (A-172 glioblastoma cells): reduces proliferation
